Patent publication US20190380912A1, “EXCIPIENT FREE GLUCOSAMINE TABLETS AND METHOD OF MAKING” (Purepharm Inc., priority 2018, published 2019)

Experiment: Friability and hardness of dried tablets on handling
Format: physicochemical
Conditions: Pellet Press, dry powder without water

compressibility: did not compress at all
SMILES: CC(=O)N[C@H]1C(O)O[C@H](CO)[C@@H](O)[C@@H]1O (stereo partly shown) [N-Acetylglucosamine]
